Laboratory results: patent publication US20090075898A1, “Complement C3A Derived Peptides and Uses Thereof” (Yeda Research and Development Co. Ltd. at the Weizmann …, priority 2005, published 2009)
Square brackets hold non-standard residues; d marks the D form. Ends that are not written are not given here.

How the values were obtained:
RBL-2H3 cells = details: for Inhibition of IgE-mediated β-hexosaminidase release from RBL-2H3 cells: peptides 5 min prior to suboptimal (5 ng/ml) antigen dose; for Inhibition of IgE-mediated β-hexoseaminidase secretion from RBL-2H3 (FIG. 1B): 250 μg of peptide
[1] = system: bone marrow derived mast cells (BMMC); test: Secretory response (β-hexosaminidase release) of bone marrow derived mast cells; type: cell-based, mouse
Protocol: Cells. Bone marrow derived mast cells (BMMC) were prepared from Balb/c mice as described by Nagao et al. (Science 212: 333-335, 1981). After 3 weeks, an approximately 95% pure mast cell population was obtained, showing high expression of FcεRI and stem cell factor receptor (c-kit), as measured by flow cytometry.
Secretory response of mast cells.
Similar experiments were carried out using bone-marrow derived mast cells (BMMC). […] The control peptide of the sequence DVSNYITR had no effect on either system.

Lyn = test: Phosphorylation of Lyn in RBL-2H3 cells, Western blot; type: cell-based, rat; details: for Phosphorylation of Lyn: cells stimulated by antigen in the presence of peptide
Protocol: Immunoprecipitation and Western blot. Mast cells were seeded in 10 cm Petri dishes (7×10^6 cells/dish) and saturated with A2IgE at 37° C. in DMEM overnight. […] The reaction was terminated by 500 μl lysis buffer (1% Triton X-100, 50 mM HEPES, 100 mM NaF, 10 mM EDTA, 2 mM sodium orthovanadate, 10% glycerol, 10 mM sodium pyrophosphate, protease inhibitor cocktail 1:200, pH 7.4) per dish. The cells were scraped and the protein content of the post nuclear supernatants was adjusted to equal values using the Bradford-assay prior to precipitation by PT-66 phosphotyrosine specific antibody coated beads (10 μl beads per sample). The proteins were eluted by sample buffer containing 2-mercaptoethanol and were separated by SDS-PAGE, electrotransferred onto a nitrocellulose membrane and developed using the indicated antibodies and detected by ECL.
(§1) These are known to include phosphorylation by the src-family PTK Lyn of the ITAMs of the FcεRI β and γ subunits.
(§2) The inhibitory action of the peptide C3a31 on the FcεRI coupling cascade was also investigated using the rat mucosal-type RBL-2H3 line.

[2] = system: passive systemic anaphylaxis in mice; test: Passive systemic anaphylaxis, blood histamine; type: in vivo, mouse; details: peptide solution onto the nostrils before DNP-HSA antigen
Protocol: Passive Systemic Anaphylaxis. Mice (Balb/c) were anesthetized with 300-400 μl of avertin and injected with 3 μg of the IgE class DNP-specific monoclonal antibody (SPE-7, Sigma) in 200 μl PBS by retroorbital injection (or tail vein). After 24 hours, mice were anesthetized with 300-400 μl of avertin and exposed to ca. 100 μl of the indicated peptide (inhibitory, SEQ ID NO:11, a control reversed peptide of SEQ ID NO:35 or peptide GAKDGNEYI-COOH of SEQ ID NO:36) solution in PBS positioned onto the nostrils. This was followed by injection of the antigen (DNP-derivatized human serum albumin, HSA, 100 μg in 200 μl of PBS) or PBS only, by retroorbital injection (or tail vein). After 1.5 minutes, mice were sacrificed by cervical dislocation and cardiac puncture performed. Heparin-rinsed syringes were now used for aspiration. Blood samples were spun at 4 degrees for 10 minutes at 8000 rpm in tabletop. Histamine was assayed by the Immunotech protocol for competitive ALP assay.
The effect of C3a derived peptides on passive systemic anaphylaxis in mice was examined. […] The reverse peptide denoted C3a55 amide was ineffective (FIG. 5). A control group was treated with a non-relevant peptide having the amino acid sequence GAKDGNEYI-COOH of SEQ ID NO:36 prior to the injection of the antigen DNP-HSA.

FcεRI β chain = test: Phosphorylation of FcεRI β chain in RBL-2H3 cells, Western blot; type: cell-based, rat; details: cells stimulated by antigen in the presence of peptide
Protocol: Immunoprecipitation and Western blot. Mast cells were seeded in 10 cm Petri dishes (7×10^6 cells/dish) and saturated with A2IgE at 37° C. in DMEM overnight. After washing they were treated with peptides for 5 min and FcεRI was clustered by incubating with 5 ng/ml DNP11-BSA at 37° C. for 2 min. The reaction was terminated by 500 μl lysis buffer (1% Triton X-100, 50 mM HEPES, 100 mM NaF, 10 mM EDTA, 2 mM sodium orthovanadate, 10% glycerol, 10 mM sodium pyrophosphate, protease inhibitor cocktail 1:200, pH 7.4) per dish. The cells were scraped and the protein content of the post nuclear supernatants was adjusted to equal values using the Bradford-assay prior to precipitation by PT-66 phosphotyrosine specific antibody coated beads (10 μl beads per sample). The proteins were eluted by sample buffer containing 2-mercaptoethanol and were separated by SDS-PAGE, electrotransferred onto a nitrocellulose membrane and developed using the indicated antibodies and detected by ECL.
as §1, §2

PAG = PAG phosphorylation in RBL-2H3 cells; type: cell-based, rat
Protocol: (§3) The inhibitory action of the peptide C3a31 on the FcεRI coupling cascade was also investigated using the rat mucosal-type RBL-2H3 line. Results of these experiments have shown that peptide C3a31 inhibited the phosphorylation of the protein tyrosine kinase Lyn and of the FcεRI β-chain. The inhibition on Lyn phosphorylation was observed after 1 min, and that on PAG phosphorylation (PAG has an important role in the regulation of src family kinases) after 3 min. However, C3a31 was also shown to enhance Lyn phosphorylation after 3 min. In addition, C3a31 inhibited Dok-1 phosphorylation after 5 min, but had no effect after 8 min.

Dok-1 = Dok-1 phosphorylation in RBL-2H3 cells; type: cell-based, rat
Protocol: as §3

PLCγ-2 = PLCγ-2 phosphorylation in RBL-2H3 cells; type: cell-based, rat
[3] = system: ovalbumin-sensitized asthmatic mice; test: Murine asthma model, lung function by plethysmography; type: in vivo, mouse; details: peptide aerosol prior to final ovalbumin challenge
Protocol: (§4) Inhibitory effect of the peptides on pulmonary functions. Mice (Balb/c, female, 8 weeks old) were first sensitized by ip injection of the antigen (Ag) ovalbumin. Thereafter, the mice were challenged 4 times by aerosol inhalation of the same Ag dispersed by nebulizer in a plexiglass chamber for about 20 min at one-week intervals. On day 28, the mice were first treated with an aerosol of the tested peptides dissolved in 0.1 M NaHCO3 and dispersed as above. As a result, the aerosol was inhaled by the animals for about 10 to 20 minutes. After inhalation, the animals were immediately challenged by inhalation (as above) of the sensitizing antigen (5% OVA in PBS) for 20 min. At the end of this treatment, the mice were immediately tested for pulmonary functions in conscious, freely moving state using plethysmography.
The degree of bronchial constriction was monitored by the enhanced pause and its relation to airway resistance, impedance and intrapleural pressure in the mouse. Bronchoalveolar lavage (BAL) samples were obtained from these mice by cannulating the trachea, injecting 0.8 ml ice-cold saline (×2) and subsequently aspirating the BAL fluid. Following these tests, mice were sacrificed using general anesthesia with brevital (1 mg/ml). Their chests wall were opened, blood withdrawn and lungs were perfused with cold PBS and examined for cytology and histology. […]

[4] = system: ovalbumin-sensitized asthmatic mice; test: Murine asthma model, cell distribution in broncho alveolar lavage; type: in vivo, mouse
Protocol: as §4
The degree of bronchial constriction was monitored by the enhanced pause and its relation to airway resistance, impedance and intrapleural pressure in the mouse. Bronchoalveolar lavage (BAL) samples were obtained from these mice by cannulating the trachea, injecting 0.8 ml ice-cold saline (×2) and subsequently aspirating the BAL fluid. Following these tests, mice were sacrificed using general anesthesia with brevital (1 mg/ml). Their chests wall were opened, blood withdrawn and lungs were perfused with cold PBS and examined for cytology and histology.
Table 3 provides results of analysis of the cells present in bronchi alveolar lavage (BAL) of mice treated by the same protocols as those subjected to analysis of lung function.

For “CCNYG (derived from human sequence) [C3a13]”, the “Inhibition of IgE-mediated β-hexosaminidase release from RBL-2H3 cells” value (“Inhibition … from RBL-2H3 cells” for short) (RBL-2H3 cells) was “shown to inhibit”.

In the case of “D-Ala-D-Ala-Asp-Ser-Ser-Asn-Tyr-Ile-Thr-Arg-NH2 ([dA][dA]DSSNYITR-NH2; N-terminus assumed; SMILES CC[C@H](C)[C@H](NC(=O)[C@H](Cc1ccc(O)cc1)NC(=O)[C@H](CC(N)=O)NC(=O)[C@H](CO)NC(=O)[C@H](CO)NC(=O)[C@H](CC(=O)O)NC(=O)[C@@H](C)NC(=O)[C@@H](C)N)C(=O)N[C@H](C(=O)N[C@@H](CCCNC(=N)N)C(N)=O)[C@@H](C)O) [C3a32]”, the “Inhibition of IgE-mediated β-hexoseaminidase secretion from RBL-2H3 (FIG. 1B)” value (RBL-2H3 cells) is reported as “found to inhibit”.

With DSSNYIR [C3a11] the “Inhibition … from RBL-2H3 cells” value (RBL-2H3 cells) was “shown to inhibit”.

In the case of “DVSNYITR [Control peptide, reference compound]”, the “Inhibition of IgE-mediated secretory response of BMMC” value [1] is reported as “had no effect”, the “Inhibitory effect (IC50) on the IgE-mediated degranulation of BMMC” value ([1]; suboptimal antigen-dose) is reported as “No effect” and the “Phosphorylation of Lyn” value (Lyn) is reported as “had no effect”. For the same substance, the “Inhibition … from RBL-2H3 cells” value (RBL-2H3 cells) was “had no effect” and the “Inhibitory effect (IC50) on the IgE-mediated degranulation of RBL-2H3” value (RBL-2H3 cells; suboptimal antigen-dose) was “No effect”.

For “RTIYNSSDS (RTIYNSSDS-NH2) [C3a55, reference compound]”, the “Symptoms of passive systemic anaphylaxis, histamine levels in mice blood” value [2] was “ineffective”.

For “Ser-Asp-Ser-Ser-Asn-Tyr-Ile-Thr-Arg-NH2 (SDSSNYITR-NH2) [C3a31]”, the “Lyn phosphorylation after 1 min” value (Lyn; after 1 min) was “inhibition”, the “Lyn phosphorylation after 3 min” value (Lyn; after 3 min) was “enhance” and the “Phosphorylation of Lyn” value (Lyn) was “inhibited”. The “Phosphorylation of the FcεRI β chain” value (FcεRI β chain) was “inhibited”, the “PAG phosphorylation after 3 min” value (PAG) was “inhibition” and the “Dok-1 phosphorylation after 5 min” value (Dok-1; after 5 min) was “inhibited”. The “Dok-1 phosphorylation after 8 min” value (Dok-1; after 8 min) was “had no effect”, the “Phosphorylation of PLCγ-2” value (PLCγ-2) was “inhibited” and the “Symptoms of passive systemic anaphylaxis, histamine levels in mice blood” value [2] was “found to reduce”. The “Antigen-induced symptoms (lung airway resistance) in asthma model” value [3] was “effective in reducing”, the “Eosinophils in BAL” value ([4]; OVA + peptide aerosol) was 4% and the “Lymphocutes in BAL” value ([4]; OVA + peptide aerosol) was 81%. For the same substance, the “Macrophages in BAL” value ([4]; OVA + peptide aerosol) was 1%, the “Mast Cells in BAL” value ([4]; OVA + peptide aerosol) was 4% and the “Neutrophils in BAL” value ([4]; OVA + peptide aerosol) was 13%. For the same substance, the “Type of cells detected in the BAL” value ([4]; peptide aerosol treatment) was “markedly affected” and the “Inhibition of IgE-mediated β-hexoseaminidase secretion from RBL-2H3 (FIG. 1B)” value (RBL-2H3 cells) was “found to inhibit”.
